Where a SMILES comes first, the peptide text is derived from it. Bridges are numbered along the chain shown (N, C = ends). [ ]: non-standard residue; d: D form. Gly(cPent) = N[C@H](C(=O)O)C1CCCC1; dPen = CC(C)(S)[C@@H](N)C(=O)O; Chg = N[C@H](C(=O)O)C1CCCCC1; Tle = CC(C)(C)[C@H](N)C(=O)O; dDab = NCC[C@@H](N)C(=O)O; NMeA = CN[C@@H](C)C(=O)O; Orn = NCCC[C@H](N)C(=O)O; Dab = NCC[C@H](N)C(=O)O; Dap = NC[C@H](N)C(=O)O
Columns and labels:
[1] = tested on: Escherichia coli ATCC 25922; assay type: cell-based; conditions: ATCC 25922
Method in brief: (§1)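 Peptide MICs were determined by NCCLS broth microdilution in cation-adjusted Mueller-Hinton II broth. Inoculum was about 10^6 CFU/mL, matched to 0.5 McFarland, with peptides in two-fold serial dilutions. The broth contained Polysorbate 80 at 0.002% final concentration.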

[2] = tested on: Acinetobacter baumannii DSM 30008; assay type: cell-based; conditions: DSM 30008
Method in brief: as §1

[3] = tested on: Klebsiella pneumoniae ATCC 13883; assay type: cell-based; conditions: ATCC 13883
Method in brief: as §1

[4] = tested on: human red blood cells (hRBC); test: Hemolysis: hemolytic activity at 100 μg/mL, 1 h at 37° C.; conditions: red cells of human, 1 h
Method in brief: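 Peptides at 100 μg/mL incubated with washed 20% (v/v) human erythrocytes (~0.9×10^9 cells/mL) for 1 h at 37 °C with shaking. Released hemoglobin read at OD 540 nm in supernatant; 0% and 100% lysis from PBS/0.001% acetic acid and 2.5% Triton X-100.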

SMILES	Escherichia coli ATCC 25922 MIC [1]	Acinetobacter baumannii DSM 30008 MIC [2]	Klebsiella pneumoniae ATCC 13883 MIC [3]	Hemolysis at 100 μg/mL [4]; 100	Hemolysis at 100 μg/mL ([4]; 100 μg/mL)
CC(C)C[C@@H]1NC(=O)[C@H](CCCNC(=N)N)NC(=O)[C@@H](CCN)NC(=O)[C@H](CC(C)C)NC(=O)[C@@H]2CSSC[C@H](NC1=O)C(=O)N[C@@H](Cc1ccc(O)cc1)C(=O)N[C@@H](CC(N)=O)C(=O)N[C@@H](CCCN)C(=O)N[C@H](CCN)C(=O)N[C@@H](CCN)C(=O)N[C@@H](Cc1c[nH]c3ccccc13)C(=O)N[C@@H](CO)C(=O)N[C@@H](Cc1ccc(O)cc1)C(=O)N2 [Example 63, cyclo(-Leu-Cys-Tyr-Asn-Orn-^DDab-Dab-Trp-Ser-Tyr-Cys-Leu-^DDab-Arg-)] (HELM PEPTIDE1{C.L.[NCC[C@@H](N[*:1])C(=O)[*:2]].R.L.C.Y.N.[Orn].[NCC[C@@H](N[*:1])C(=O)[*:2]].[Dab].W.S.Y}$PEPTIDE1,PEPTIDE1,1:R3-6:R3|PEPTIDE1,PEPTIDE1,1:R1-14:R2$$$V2.0)	1 µg/mL	0.625 µg/mL	0.75 µg/mL	3%	
CC(C)C[C@@H]1NC(=O)[C@H](CCCNC(=N)N)NC(=O)[C@@H](CCN)NC(=O)[C@H](C(C)C)NC(=O)[C@@H]2CSSC[C@H](NC1=O)C(=O)N[C@@H](Cc1ccc(O)cc1)C(=O)N[C@@H](C(C)C)C(=O)N[C@@H](CCCN)C(=O)N[C@H](CCN)C(=O)N[C@@H](CCN)C(=O)N[C@@H](Cc1c[nH]c3ccccc13)C(=O)N[C@@H](Cc1ccc(O)cc1)C(=O)N[C@@H](Cc1ccc(O)cc1)C(=O)N2 [Example 21, cyclo(-Leu-Cys-Tyr-Val-Orn-^DDab-Dab-Trp-Tyr-Tyr-Cys-Val-^DDab-Arg-)] (HELM PEPTIDE1{C.V.[NCC[C@@H](N[*:1])C(=O)[*:2]].R.L.C.Y.V.[Orn].[NCC[C@@H](N[*:1])C(=O)[*:2]].[Dab].W.Y.Y}$PEPTIDE1,PEPTIDE1,1:R3-6:R3|PEPTIDE1,PEPTIDE1,1:R1-14:R2$$$V2.0)	1 µg/mL	0.5 µg/mL	1 µg/mL	6%	
CC(C)C[C@@H]1NC(=O)[C@H](CCN)NC(=O)[C@H]2CCCN2C(=O)[C@H](C(C)C)NC(=O)[C@H]([C@@H](C)O)NC(=O)[C@H](C(C)C)NC(=O)[C@@H]2CSSC[C@H](NC(=O)[C@H](Cc3ccc(O)cc3)NC(=O)[C@H]([C@@H](C)O)NC1=O)C(=O)N[C@@H](CCN)C(=O)N[C@H](CCN)C(=O)N[C@@H](CCN)C(=O)N[C@@H](Cc1c[nH]c3ccccc13)C(=O)N2 [Example 37, cyclo(-Leu-Thr-Tyr-Cys-Dab-^DDab-Dab-Trp-Cys-Val-Thr-Val-^DPro-Dab-)] (HELM PEPTIDE1{C.[Dab].[NCC[C@@H](N[*:1])C(=O)[*:2]].[Dab].W.C.V.T.V.[dP].[Dab].L.T.Y}$PEPTIDE1,PEPTIDE1,1:R3-6:R3|PEPTIDE1,PEPTIDE1,1:R1-14:R2$$$V2.0)	4 µg/mL	2 µg/mL	2 µg/mL	2%	
CC(C)C[C@@H]1NC(=O)[C@H](CCCNC(=N)N)NC(=O)[C@@H](CCN)NC(=O)[C@H](C(C)C)NC(=O)[C@@H]2CSSC[C@H](NC1=O)C(=O)N[C@@H](Cc1ccc(O)cc1)C(=O)N[C@@H](CC(N)=O)C(=O)N[C@@H](CCCN)C(=O)N[C@@H](CCN)C(=O)N[C@@H](CCN)C(=O)N[C@@H](Cc1c[nH]c3ccccc13)C(=O)N[C@@H](CO)C(=O)N[C@@H](Cc1ccc(O)cc1)C(=O)N2 [Example 55, cyclo(-Leu-Cys-Tyr-Asn-Orn-Dab-Dab-Trp-Ser-Tyr-Cys-Val-^DDab-Arg-)] (HELM PEPTIDE1{C.V.[NCC[C@@H](N[*:1])C(=O)[*:2]].R.L.C.Y.N.[Orn].[Dab].[Dab].W.S.Y}$PEPTIDE1,PEPTIDE1,1:R3-6:R3|PEPTIDE1,PEPTIDE1,1:R1-14:R2$$$V2.0)	1 µg/mL	1.25 µg/mL	1 µg/mL	0%	
CC(C)C[C@@H]1NC(=O)[C@H](CCCNC(=N)N)NC(=O)[C@H]2CCCN2C(=O)[C@H](C(C)C)NC(=O)[C@@H]2CSSC[C@H](NC1=O)C(=O)N[C@@H](Cc1ccc(O)cc1)C(=O)N[C@H]1CSSC[C@H](NC(=O)[C@H](Cc3c[nH]c4ccccc34)NC(=O)[C@H](CCN)NC(=O)[C@H](CCN)NC(=O)[C@H](CCN)NC1=O)C(=O)N[C@@H](Cc1ccc(O)cc1)C(=O)N2 [Example 42, cyclo(-Leu-Cys-Tyr-Cys-Dab-Dab-Dab-Trp-Cys-Tyr-Cys-Val-^DPro-Arg-)] (HELM PEPTIDE1{C.[Dab].[Dab].[Dab].W.C.Y.C.V.[dP].R.L.C.Y}$PEPTIDE1,PEPTIDE1,1:R3-6:R3|PEPTIDE1,PEPTIDE1,8:R3-13:R3|PEPTIDE1,PEPTIDE1,1:R1-14:R2$$$V2.0)	4 µg/mL	1 µg/mL	2 µg/mL		3%
CC(C)C[C@@H]1NC(=O)[C@@H]2CCCN2C(=O)[C@H]2CCCN2C(=O)[C@H](CO)NC(=O)[C@@H]2NC(=O)[C@H](C3CCCCC3)NC(=O)[C@H](CCN)NC(=O)[C@H](Cc3c[nH]c4ccccc34)NC(=O)[C@H](CCN)NC(=O)[C@@H](CCN)NC(=O)[C@H](CCCN)NC(=O)[C@H](CCN)NC(=O)[C@H](C(C)(C)C)NC(=O)[C@H](NC1=O)C(C)(C)SSC2(C)C [Example 33, cyclo(-Leu-Pen-tBuGly-Dab-Orn-DDab-Dab-Trp-Dab-Chg-Pen-Ser-^DPro-Pro-)] (cyclo(L[dPen][Tle][Dab][Orn][dDab][Dab]W[Dab][Chg][dPen]S[dP]P); disulfide 2-11)	1 µg/mL	1 µg/mL	2 µg/mL	1%	
CC(C)C[C@@H]1NC(=O)[C@@H]2CCCN2C(=O)[C@@H](CCN)NC(=O)[C@H](CO)NC(=O)[C@H](C(C)C)NC(=O)[C@H](C(C)(C)C)NC(=O)[C@@H]2CC(=O)NCC[C@H](NC(=O)[C@H](Cc3ccc(O)cc3)NC(=O)[C@H](Cc3ccc(O)cc3)NC1=O)C(=O)N[C@@H](CCCN)C(=O)N[C@H](CCN)C(=O)N[C@@H](CCN)C(=O)N[C@@H](Cc1c[nH]c3ccccc13)C(=O)N2 [Example 41, cyclo(-Leu-Tyr-Tyr-Dab-Orn-^DDab-Dab-Trp-Asp-tBuGly-Val-Ser-^DDab-Pro-)] (cyclo(D[Tle]VS[dDab]PLYY[Dab][Orn][dDab][Dab]W); lactam 1-10)	2 µg/mL	2 µg/mL	1 µg/mL	2%	
CC(C)C[C@@H]1NC(=O)[C@H](CCCNC(=N)N)NC(=O)[C@@H](CCCNC(=N)N)NC(=O)[C@H](C(C)C)NC(=O)[C@@H]2CSSC[C@H](NC1=O)C(=O)N[C@@H](Cc1ccc(O)cc1)C(=O)N[C@@H](CC(N)=O)C(=O)N[C@@H](CCCN)C(=O)N[C@H](CCN)C(=O)N[C@@H](CCN)C(=O)N[C@@H](Cc1c[nH]c3ccccc13)C(=O)N[C@@H](CO)C(=O)N[C@@H](Cc1ccc(O)cc1)C(=O)N2 [Example 66, cyclo(-Leu-Cys-Tyr-Asn-Orn-^DDab-Dab-Trp-Ser-Tyr-Cys-Val-^DArg-Arg-)] (HELM PEPTIDE1{C.V.[dR].R.L.C.Y.N.[Orn].[NCC[C@@H](N[*:1])C(=O)[*:2]].[Dab].W.S.Y}$PEPTIDE1,PEPTIDE1,1:R3-6:R3|PEPTIDE1,PEPTIDE1,1:R1-14:R2$$$V2.0)	1 µg/mL	1.25 µg/mL	0.5 µg/mL	2%	
CC(C)[C@@H]1NC(=O)[C@@H]2CSSC[C@H](NC(=O)[C@H](C3CCCC3)NC(=O)[C@H](CCCNC(=N)N)NC(=O)[C@@H](CCN)NC1=O)C(=O)N[C@@H](Cc1ccc(O)cc1)C(=O)N[C@@H](CC(N)=O)C(=O)N[C@@H](CCCN)C(=O)N[C@H](CCN)C(=O)N[C@@H](CCN)C(=O)N[C@@H](Cc1c[nH]c3ccccc13)C(=O)N[C@@H](CO)C(=O)N[C@@H](Cc1ccc(O)cc1)C(=O)N2 [Example 59, cyclo(-Cpg-Cys-Tyr-Asn-Orn-^DDab-Dab-Trp-Ser-Tyr-Cys-Val-^DDab-Arg-)] (cyclo(CV[dDab]R[Gly(cPent)]CYN[Orn][dDab][Dab]WSY); disulfide 1-6)	1 µg/mL	0.75 µg/mL	0.75 µg/mL	1%	
CC(C)[C@@H]1NC(=O)[C@H](C)N(C)C(=O)[C@H]2CCCN2C(=O)[C@H](CO)NC(=O)[C@H](C)NC(=O)[C@H](C(C)(C)C)NC(=O)[C@H](CCN)NC(=O)[C@H](Cc2c[nH]c3ccccc23)NC(=O)[C@H](CCN)NC(=O)[C@@H](CCN)NC(=O)[C@H](CN)NC(=O)[C@H](CCN)NC(=O)[C@H](Cc2ccc(O)cc2)NC(=O)[C@H](CO)NC1=O [Example 44, cyclo(-Val-Ser-Tyr-Dab-Dap-^DDab-Dab-Trp-Dab-tBuGly-Ala-Ser-^DPro-NMeAla-)] (cyclo(AS[dP][NMeA]VSY[Dab][Dap][dDab][Dab]W[Dab][Tle]))	1 µg/mL	2 µg/mL	0.5 µg/mL	1%	

Reference: patent US11753446B2, “Beta-hairpin peptidomimetics” (POLYPHOR AG, priority 2014, dated 2023)
